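Each compound was tested at five concentrations against cells in 96-well plates for 48 hours. At the GI50, growth is halved. TGI: total growth inhibition.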
Columns and labels:
Test in all cases: inhibition of tumour cell growth, NCI panel, 48 h
[1] = tested on: LOX IMVI melanoma
[2] = tested on: SK-MEL-5 melanoma
[3] = tested on: NCI-H522 lung
[4] = tested on: OVCAR-4 ovarian
[5] = tested on: NCI-H23 lung
[6] = tested on: A549 NSCLC
[7] = tested on: RXF 393 renal
[8] = tested on: NCI-H226 lung
[9] = tested on: DU-145 prostate
[10] = tested on: HCC-2998 colon

| Structure (SMILES) | GI50 [1] [µM] | TGI [1] [µM] | GI50 [2] [µM] | TGI [2] [µM] | GI50 [3] [µM] | TGI [3] [µM] | GI50 [4] [µM] | TGI [4] [µM] | GI50 [5] [µM] | TGI [5] [µM] | GI50 [6] [µM] | TGI [6] [µM] | GI50 [7] [µM] | TGI [7] [µM] | GI50 [8] [µM] | TGI [8] [µM] | GI50 [9] [µM] | TGI [9] [µM] | GI50 [10] [µM] | TGI [10] [µM] |
| --- | --- | --- | --- | --- | --- | --- | --- | --- | --- | --- | --- | --- | --- | --- | --- | --- | --- | --- | --- | --- |
| CC(C)(C)c1n[nH]c(=S)n(/N=C/c2ccc(F)c(Oc3ccccc3)c2)c1=O | 28.7 | 72.2 | 19.9 | 42.4 | > 100 | > 100 | 23.8 | 96.9 | 37.7 | > 100 | 33.9 | > 100 | 38.2 | > 100 | > 100 | > 100 | 67.7 | > 100 | 33.2 | > 100 |
| O=C(C1CCCCC1)[C@@H]1[C@]2(C(=O)NC3CCCCC32)[C@@H]2CCCN2[C@@]12C(=O)NC1CCC(Cl)CC12 (stereo not given in full) | 103 | 253 | 110 | 234 | 120 | 281 | 64.4 | 218 | 119 | 274 | 135 | 379 | 113 | 301 | 179 | 411 | 128 | 259 | 135 | 293 |
| c1ccc2c(c1)c(NCCCCN1CCCCC1)cc1c3ccccc3c(NCCCCN3CCCCC3)cc21 | 11.2 | 28.2 | 15.1 | 31.4 | 66.2 | > 100 |  |  | 20.5 | 44.5 | 21.8 | 56.6 | 15.7 | 38.2 | 20.9 | 54.9 | 16.3 | 46.2 | 18.2 | 41.6 |
| O=C(/C(=C/c1ccccc1)CN1CCCCC1)c1ccccc1 | 0.364 | 1.5 | 1.43 | 2.94 | 0.365 | 0.884 | 2.05 | 9.53 | 1.49 | 4.3 | 1.84 | 3.92 | 0.481 | 1.21 | 1.53 | 3.82 | 1.52 | 5.78 | 1.68 | 3.11 |
| C[C@]12CCC3[C@@H](CC[C@@H]4c5nonc5CC[C@]34C)C1CCC(=O)N2 (stereo not given in full) |  | > 100 |  | > 100 |  | > 100 |  | > 100 |  | > 100 |  | > 100 |  | > 100 |  | > 100 | > 100 | > 100 | > 100 | > 100 |
| N#Cc1c(N/N=C/c2c(Cl)cccc2Cl)nc(N)nc1N1CCOCC1 | 8.97 | > 100 | 3.71 | 24 | 4.35 | 27.3 | > 100 | > 100 | 44.5 | > 100 | 19.1 | > 100 | 16.6 | 94.2 | 24.5 | > 100 | 16 | > 100 | 3.96 | 12.8 |
